Results as given in patent publication US20040019026A1, “Compounds useful for treating hypertriglyceridemia” (priority 2000, published 2004).

Tested on: male BKS.Cg-m+/+Leprdb mice
Test: Fasting plasma triglyceride levels in diabetic mice (Example 9)
Format: in vivo
From the text: Eight week old male BKS.Cg-m^+/+Lepr^db mice were obtained from Jackson Laboratories. These mice have a point mutation in the leptin receptor gene and produce a truncated receptor with impaired signaling capacity. These animals are severely insulin resistant and manifest an uncontrolled rise in blood sugar, severe depletion of the insulin-producing beta-cells of the pancreatic islets, and death by 10 months of age. The male animals also have very low plasma testosterone levels and as a consequence undeveloped seminal vesicle glands. Administration of androgens to these mice produces an increase in seminal vesicle weights similar to that seen in castrated males. Thus these animals can be used to assess androgenic potency of various compounds.
A week later, the mice were treated subcutaneously (s.c.) with 0.05 mL fluasterone (16α-fluoro-5-androsten-17-one) suspended in an Emulphor-saline vehicle to give either a dose of 5 mg/kg s.c. or 20 mg/kg s.c. or intraperitoneally (i.p.) with 0.05 mL of fluasterone suspended in an Emulphor-saline vehicle to give a dose of 5 mg/kg. The Control mice received the Emulphor-saline vehicle s.c.
All the mice were anesthetized lightly with isoflurane before treatment with fluasterone to minimize the risk of stressing the mice while giving the s.c. dose. Their food was removed the afternoon before administration with drug and the chow was to the mice the next morning immediately after treatment. All the mice had their chow removed daily and restored just after fluasterone administration. During the week, the mice had access to chow for approximately 6½ hours, while on the weekends, the mice had approximately 4½ hours of access to chow. Mice were treated daily (weekdays and weekends).
Plasma triglyceride levels were determined with a Sigma kit (334-UV ). The determination is based on the enzymatic hydrolysis of triglycerides to glycerol and free fatty acids by lipase. Glycerol is subsequently phosphorylated by ATP to produce glycerol-1-phosphate and ADP. ATP is regenerated by a pyruvate kinase-catalyzed reaction between ADP and phosphoenol pyruvate. […] NADH absorbs at 340 nm, thus the decrease in absorbance, measured at this wavelength, is directly proportional to the triglyceride concentration in the sample.
Triglyceride Reagent A (containing ATP, lactate dehydrogenase, lipase, NADH, phosphoenol pyruvate, pyruvate kinase) and Triglyceride Reagent B were reconstituted with 10 mL and 2 mL of distilled water respectively. The Sample Regent is prepared by adding 0.25 mL of Triglyceride Reagent B to 10 mL of Triglyceride Reagent A. Blank, standards (50, 100 and 200 mg/dL) and sample tubes were prepared. One mL of Sample Reagent is added to all tubes. To the Blank tube, 20 μL of distilled water is added. For each Sample tube, 20 μL of plasma is added to the tube. All tubes were incubated at room temperature for 10 minutes. The tubes were read against a Reference containing distilled water. Triglyceride concentration in the samples were calculated by subtracting the absorbance of the Sample from the absorbance of the Blank and using the following formula: […]

C[C@]12CCCCC1=CC[C@@H]1[C@@H]2CC[C@]2(C)C(=O)[C@H](F)C[C@@H]12 [fluasterone, 16α-fluoro-5-androsten-17-one]
Fasting Plasma Triglyceride Levels (5 mg/kg i.p., treatment day 0): 136 ± 38.4 mg/dL | Fasting Plasma Triglyceride Levels (5 mg/kg i.p., treatment day 7, less than s.c. Control, p < 0.02): 91.1 ± 14.5^2 mg/dL | Fasting Plasma Triglyceride Levels (5 mg/kg i.p., treatment day 14, less than s.c. Control, p < 0.01): 115 ± 14.2^4 mg/dL | Fasting Plasma Triglyceride Levels (5 mg/kg i.p., treatment day 17): 116 ± 17.0 mg/dL | Fasting Plasma Triglyceride Levels (5 mg/kg s.c., treatment day 0): 126 ± 20.9 mg/dL | Fasting Plasma Triglyceride Levels (5 mg/kg s.c., treatment day 7, less than s.c. Control, p < 0.02): 115 ± 33.3^2 mg/dL | Fasting Plasma Triglyceride Levels (5 mg/kg s.c., treatment day 14, less than s.c. Control, p < 0.01): 115 ± 15.7^4 mg/dL | Fasting Plasma Triglyceride Levels (5 mg/kg s.c., treatment day 17): 115 ± 13.7 mg/dL | Fasting Plasma Triglyceride Levels (200 mg/kg oral, treatment day 0): 126 ± 18.6 mg/dL | Fasting Plasma Triglyceride Levels (200 mg/kg oral, treatment day 7, less than oral Control, p < 0.01): 107 ± 38.9^1 mg/dL | Fasting Plasma Triglyceride Levels (200 mg/kg oral, treatment day 14, less than oral Control, p < 0.001): 95.7 ± 15.6^3 mg/dL | Fasting Plasma Triglyceride Levels (200 mg/kg oral, treatment day 17, less than oral Control, p < 0.001): 100 ± 13.1^3 mg/dL
